Experimental data taken from US20040236269A1, “Microsurgical tissue treatment system” (priority 2002, published 2004).

Assay: Delivery of a topical anesthetic through micro-ablated stratum corneum; sensation probed with 20 gauge needle or by pinching
Format: in vivo
Settings: solution of 4% lidocaine applied for five minutes to approx. 1 cm^2 area ablated by piezoelectric actuator with 60 micron aluminum oxide particles, 10-15 pulses, 20 kHz; probed with 20 gauge needle or pinching
Procedure: A piezoelectric actuator was fitted with 60 micron aluminum oxide particles fixed to its surface so as to provide an approximate 1 cm^2 treatment area. Ten to fifteen pulses of less than one second duration were applied with force of less than 1 pound to the area and frequency of 20 kHz. […] A solution of 4% lidocaine was applied to the area and incubated for five minutes. The excess lidocaine was wiped off, and a series of probes was made in and around the area of treatment using a 20 gauge needle or by pinching.

## CCN(CC)CC(=O)Nc1c(C)cccc1C [lidocaine]
  anesthesia (lack of sensation within and in close proximity to the treatment site): significant anesthesia was obtained
